Columns and labels:
Conditions in all cases: exposure time: 72 h
E21 [1] = patient-derived glioblastoma stem cells of mesenchymal subtype; experiment: phenotypic distance (Euclidean, principal components) from DMSO controls (arbitrary units); higher = stronger morphological change
E31 [2] = patient-derived glioblastoma stem cells of proneural subtype; experiment: as above
FT3469 [3] = normal neural stem cell line; experiment: as above
E13 [4] = patient-derived glioblastoma stem cells of classical subtype; experiment: as above
E34 [5] = patient-derived glioblastoma stem cells of proneural subtype; experiment: as above
E57 [6] = patient-derived glioblastoma stem cells of mesenchymal subtype; experiment: as above
E28 [7] = patient-derived glioblastoma stem cells of classical subtype; experiment: as above
E21 [8] = experiment: surviving fraction (nuclei count normalised to DMSO); higher = more cells surviving (less toxic)
E31 [9] = experiment: as above
FT3469 [10] = experiment: as above
E13 [11] = experiment: as above
E34 [12] = experiment: as above
E57 [13] = experiment: as above
E28 [14] = experiment: as above
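Wherever phenotypic distance (Euclidean, principal components) from DMSO controls is given: cell Painting imaging in 384-well plates, CellProfiler features reduced to at least 20 principal components, Euclidean distance versus same-plate DMSO vehicle wells (0.1% v/v), median over six images per well.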
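Wherever surviving fraction (nuclei count normalised to DMSO) is given: nuclei counted by high-content imaging of Hoechst-stained cells in laminin-coated 384-well plates, relative to 0.1% DMSO vehicle wells, with staurosporine as cell-death control.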

O=C(/C=C/c1ccc([N+](=O)[O-])cc1)/C=C1/C(=O)Nc2ccc(F)cc21 [APIO-EE-07]
Conditions	phenotypic distance	surviving fraction
E13 [4], 2.7 nM	0.638	–
E13 [4], 8.2 nM	0.674	–
E13 [4], 24.7 nM	0.47	–
E13 [4], 74.1 nM	0.494	–
E13 [4], 222.2 nM	0.491	–
E13 [4], 666.7 nM	0.644	–
E13 [4], 2000 nM	0.888	–
E13 [11], 2.7 nM	–	0.978
E13 [11], 8.2 nM	–	0.955
E13 [11], 24.7 nM	–	0.964
E13 [11], 74.1 nM	–	1.0673
E13 [11], 222.2 nM	–	0.994
E13 [11], 666.7 nM	–	0.9741
E13 [11], 2000 nM	–	0.841
E21 [1], 2.7 nM	0.833	–
E21 [1], 8.2 nM	0.648	–
E21 [1], 24.7 nM	0.526	–
E21 [1], 74.1 nM	2.82	–
E21 [1], 222.2 nM	0.86	–
E21 [1], 666.7 nM	0.927	–
E21 [1], 2000 nM	2.33	–
E21 [8], 2.7 nM	–	0.996
E21 [8], 8.2 nM	–	0.929
E21 [8], 24.7 nM	–	1.04
E21 [8], 74.1 nM	–	0.991
E21 [8], 222.2 nM	–	0.989
E21 [8], 666.7 nM	–	1.03
E21 [8], 2000 nM	–	0.642
E28 [7], 2.7 nM	0.693	–
E28 [7], 8.2 nM	0.629	–
E28 [7], 24.7 nM	0.459	–
E28 [7], 74.1 nM	0.507	–
E28 [7], 222.2 nM	1.59	–
E28 [7], 666.7 nM	0.58	–
E28 [7], 2000 nM	3.56	–
E28 [14], 2.7 nM	–	1.1
E28 [14], 8.2 nM	–	0.992
E28 [14], 24.7 nM	–	1
E28 [14], 74.1 nM	–	1.04
E28 [14], 222.2 nM	–	0.944
E28 [14], 666.7 nM	–	1.054
E28 [14], 2000 nM	–	0.293
E31 [2], 2.7 nM	0.66	–
E31 [2], 8.2 nM	0.527	–
E31 [2], 24.7 nM	0.585	–
E31 [2], 74.1 nM	0.697	–
E31 [2], 222.2 nM	0.744	–
E31 [2], 666.7 nM	0.876	–
E31 [2], 2000 nM	1.95	–
E31 [9], 2.7 nM	–	0.971
E31 [9], 8.2 nM	–	1.07
E31 [9], 24.7 nM	–	0.973
E31 [9], 74.1 nM	–	0.943
E31 [9], 222.2 nM	–	0.958
E31 [9], 666.7 nM	–	0.951
E31 [9], 2000 nM	–	0.448
E34 [5], 2.7 nM	0.787	–
E34 [5], 8.2 nM	0.702	–
E34 [5], 24.7 nM	0.648	–
E34 [5], 74.1 nM	0.775	–
E34 [5], 222.2 nM	0.511	–
E34 [5], 666.7 nM	1.19	–
E34 [5], 2000 nM	1.13	–
E34 [12], 2.7 nM	–	0.95
E34 [12], 8.2 nM	–	0.991
E34 [12], 24.7 nM	–	1
E34 [12], 74.1 nM	–	0.971
E34 [12], 222.2 nM	–	0.979
E34 [12], 666.7 nM	–	0.87
E34 [12], 2000 nM	–	0.731
E57 [6], 2.7 nM	0.81	–
E57 [6], 8.2 nM	0.581	–
E57 [6], 24.7 nM	0.418	–
E57 [6], 74.1 nM	0.557	–
E57 [6], 222.2 nM	0.584	–
E57 [6], 666.7 nM	0.739	–
E57 [6], 2000 nM	2.46	–
E57 [13], 2.7 nM	–	0.99
E57 [13], 8.2 nM	–	1.01
E57 [13], 24.7 nM	–	1.03
E57 [13], 74.1 nM	–	1.04
E57 [13], 222.2 nM	–	0.999
E57 [13], 666.7 nM	–	1.02
E57 [13], 2000 nM	–	0.791
FT3469 [3], 2.7 nM	0.776	–
FT3469 [3], 8.2 nM	0.699	–
FT3469 [3], 24.7 nM	2.24	–
FT3469 [3], 74.1 nM	1.29	–
FT3469 [3], 222.2 nM	0.569	–
FT3469 [3], 666.7 nM	0.6	–
FT3469 [3], 2000 nM	2.12	–
FT3469 [10], 2.7 nM	–	0.932
FT3469 [10], 8.2 nM	–	1.01
FT3469 [10], 24.7 nM	–	1.04
FT3469 [10], 74.1 nM	–	1.09
FT3469 [10], 222.2 nM	–	0.975
FT3469 [10], 666.7 nM	–	0.982
FT3469 [10], 2000 nM	–	0.775

— the supplement of paper PMC13207355
